Assay results from the NIST ThermoML archive (doi:10.1021/acs.jced.7b00773).

Conditions: Liquid; for viscosity: Concentric cylinders viscometry

CCCC[N+]1(C)CCCC1.O=S(=O)([N-]S(=O)(=O)C(F)(F)F)C(F)(F)F
Conditions	mass density [kg/m3]
351.6 K, 180000 kPa, Bellows volumetry	1449.2
351.6 K, 190000 kPa, Bellows volumetry	1453.3
351.6 K, 200000 kPa, Bellows volumetry	1457.4
353.15 K, 100 kPa, Vibrating tube method	1347.1
363.15 K, 100 kPa, Vibrating tube method	1338.7
371.6 K, 10000 kPa, Bellows volumetry	1339.4
371.6 K, 20000 kPa, Bellows volumetry	1347.4
371.6 K, 30000 kPa, Bellows volumetry	1355.3
371.6 K, 40000 kPa, Bellows volumetry	1362.4
371.6 K, 50000 kPa, Bellows volumetry	1369.3
371.6 K, 60000 kPa, Bellows volumetry	1375.8
371.6 K, 70000 kPa, Bellows volumetry	1382
371.6 K, 80000 kPa, Bellows volumetry	1387.9
371.6 K, 90000 kPa, Bellows volumetry	1393.8
371.6 K, 100000 kPa, Bellows volumetry	1399
371.6 K, 110000 kPa, Bellows volumetry	1404.3
371.6 K, 120000 kPa, Bellows volumetry	1409.6
371.6 K, 130000 kPa, Bellows volumetry	1414.5
371.6 K, 140000 kPa, Bellows volumetry	1419.3
371.6 K, 150000 kPa, Bellows volumetry	1424
371.6 K, 160000 kPa, Bellows volumetry	1428.4
371.6 K, 170000 kPa, Bellows volumetry	1433
371.6 K, 180000 kPa, Bellows volumetry	1437.4
371.6 K, 190000 kPa, Bellows volumetry	1441.6
371.6 K, 200000 kPa, Bellows volumetry	1445.7
373.15 K, 100 kPa, Vibrating tube method	1329.8
391.6 K, 10000 kPa, Bellows volumetry	1323.3
391.6 K, 20000 kPa, Bellows volumetry	1331.9
391.6 K, 30000 kPa, Bellows volumetry	1340.1
391.6 K, 40000 kPa, Bellows volumetry	1347.7
391.6 K, 50000 kPa, Bellows volumetry	1354.8
391.6 K, 60000 kPa, Bellows volumetry	1361.5
391.6 K, 70000 kPa, Bellows volumetry	1368.2
391.6 K, 80000 kPa, Bellows volumetry	1374.3
391.6 K, 90000 kPa, Bellows volumetry	1380.3
391.6 K, 100000 kPa, Bellows volumetry	1385.9
391.6 K, 110000 kPa, Bellows volumetry	1391.3
391.6 K, 120000 kPa, Bellows volumetry	1396.9
391.6 K, 130000 kPa, Bellows volumetry	1401.9
391.6 K, 140000 kPa, Bellows volumetry	1406.8
391.6 K, 150000 kPa, Bellows volumetry	1411.5
391.6 K, 160000 kPa, Bellows volumetry	1416.3
391.6 K, 170000 kPa, Bellows volumetry	1420.8
391.6 K, 180000 kPa, Bellows volumetry	1425.3
391.6 K, 190000 kPa, Bellows volumetry	1429.7
391.6 K, 200000 kPa, Bellows volumetry	1434
411.3 K, 10000 kPa, Bellows volumetry	1307.4
411.3 K, 20000 kPa, Bellows volumetry	1316.7
411.3 K, 30000 kPa, Bellows volumetry	1325.3
411.3 K, 40000 kPa, Bellows volumetry	1333.4
411.3 K, 50000 kPa, Bellows volumetry	1341
411.3 K, 60000 kPa, Bellows volumetry	1348
411.3 K, 70000 kPa, Bellows volumetry	1354.7
411.3 K, 80000 kPa, Bellows volumetry	1361.2
411.3 K, 90000 kPa, Bellows volumetry	1367.3
411.3 K, 100000 kPa, Bellows volumetry	1373.4
411.3 K, 110000 kPa, Bellows volumetry	1379
411.3 K, 120000 kPa, Bellows volumetry	1384.4
411.3 K, 130000 kPa, Bellows volumetry	1389.7
411.3 K, 140000 kPa, Bellows volumetry	1394.9
411.3 K, 150000 kPa, Bellows volumetry	1400
411.3 K, 160000 kPa, Bellows volumetry	1404.8
411.3 K, 170000 kPa, Bellows volumetry	1409.4
411.3 K, 180000 kPa, Bellows volumetry	1414.1
411.3 K, 190000 kPa, Bellows volumetry	1418.5
411.3 K, 200000 kPa, Bellows volumetry	1422.8

100 kPa
Conditions	viscosity [mPa·s]
353.15 K	12.86
363.15 K	10.33
373.15 K	8.471
